Article PMC4261083, “An atypical residue in the pore of Varroa destructor GABA-activated RDL receptors affects picrotoxin block and thymol modulation” (Insect Biochemistry and Molecular Biology, 2014)
Residue numbers refer to the chain shown, from its start.

Experiments:
Test in all cases: GABA activation of RDL receptors, two electrode voltage clamp in Xenopus oocytes
Format in all cases: cell-based
[1] = target: T1, A20′S mutant Drosophila RDL receptor (Drosophila melanogaster, UniProt P25123, A319S)
T1 construct: expressed in transfected cells; host or cells: Xenopus laevis oocytes injected with cRNA
T1 sequence (P25123 45-606 A319S): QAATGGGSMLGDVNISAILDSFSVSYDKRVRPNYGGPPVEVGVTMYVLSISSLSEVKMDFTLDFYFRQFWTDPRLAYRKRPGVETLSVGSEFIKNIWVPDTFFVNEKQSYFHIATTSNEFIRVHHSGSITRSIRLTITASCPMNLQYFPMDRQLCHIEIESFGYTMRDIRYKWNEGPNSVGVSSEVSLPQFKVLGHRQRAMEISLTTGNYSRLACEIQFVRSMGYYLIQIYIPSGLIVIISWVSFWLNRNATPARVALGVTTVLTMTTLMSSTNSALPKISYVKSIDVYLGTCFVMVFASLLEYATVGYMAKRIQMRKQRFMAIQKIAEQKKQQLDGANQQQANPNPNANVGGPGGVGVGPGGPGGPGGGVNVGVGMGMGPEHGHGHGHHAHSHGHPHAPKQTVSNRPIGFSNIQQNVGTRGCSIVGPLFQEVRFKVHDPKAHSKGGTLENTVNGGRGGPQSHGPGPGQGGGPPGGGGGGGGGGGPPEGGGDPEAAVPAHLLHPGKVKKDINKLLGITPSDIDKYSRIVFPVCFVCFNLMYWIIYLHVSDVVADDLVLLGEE
Description: (§1) X. laevis oocyte-positive females were purchased from NASCO (Fort Atkinson, Wisconsin, USA) and maintained according to standard methods. Harvested stage V-VI Xenopus oocytes were washed in four changes of ND96 (96 mM NaCl, 2 mM KCl, 1 mM MgCl2, 1 mM CaCl2, 5 mM HEPES, pH 7.5), de-folliculated in 1.5 mg ml^−1 collagenase Type 1A for approximately 2 h, washed again in four changes of ND96 and stored in ND96 containing 2.5 mM sodium pyruvate, 0.7 mM theophylline and […].
(§2) Site directed mutagenesis was performed with the QuikChange mutagenesis kit (Agilent, La Jolla, CA). cRNA was transcribed in vitro from linearised pGEMHE cDNA template using the mMessage mMachine T7 Transcription kit (Ambion, Austin, Texas, USA). Stage V and VI oocytes were injected with 5 ng cRNA, incubated at 18 °C, and currents recorded 18–24 h post-injection.
(§3) Currents were recorded at 5 kHz and filtered at a frequency of 1 kHz. Micro-electrodes were fabricated from borosilicate glass (GC120TF-10, Harvard Apparatus, Edenbridge, Kent, UK) using a one stage horizontal pull (P-87, Sutter Instrument Company, California, USA) and filled with 3 M KCl. […] Oocytes were perfused with ND96 at a constant rate of 12 ml min^−1. Drug application was via a simple gravity fed system calibrated to run at the same rate.
(§4) Analysis and curve fitting was performed using Prism v5 (GraphPad Software, San Diego, California, USA). Concentration-response data for each oocyte was normalised to the maximum current for that oocyte. The mean and S.E.M. for a series of oocytes were fitted to the four parameter logistic equation in Prism.

[2] = target: T2, N-7′H mutant Drosophila RDL receptor (Drosophila melanogaster, UniProt P25123, N292H); conditions: N-7′H RDL
T2 construct: expressed in transfected cells; host or cells: Xenopus laevis oocytes injected with cRNA
T2 sequence (P25123 45-606 N292H): T1 sequence (P25123 45-606 A319S) with N248H, S275A
Description: as §1, §2, §3, §4

[3] = target: T3, wild type Drosophila RDL receptor (Drosophila melanogaster, UniProt P25123)
T3 construct: expressed in transfected cells; host or cells: Xenopus laevis oocytes injected with cRNA
T3 sequence (P25123 45-606): T1 sequence (P25123 45-606 A319S) with S275A
Description: as §1, §2, §3, §4

SMILES: NCCCC(=O)O [GABA]
- GABA nH (Hill slope) [1]: 1.6 ± 0.4
- GABA nH (Hill slope) [2]: 2.5 ± 0.5
- GABA nH (Hill slope) [3]: 1.6 ± 0.5
